Assay results taken from US20090118310A1, “Activated Cdc42-associated kinase (ACK) as a therapeutic target for Ras-induced cancer” (UNIVERSITY OF MEDICINE AND DENTISTRY OF NEW JERSEY, priority 2005, published 2009).
d = 2'-deoxy (DNA); r = 2'-OH (RNA)

Columns and labels:
[1] = target: T1, ACK-1 kinase (GST-ACKD, amino acids 101-441) (Homo sapiens, UniProt Q07912); experiment: In vitro kinase assay of GST-ACKD with MBP as substrate; type: biochemical; settings: FIG. 4C dose response, FIG. 4D inhibitors at 200 nmol/L
T1 construct: made in house; host or cells: Escherichia coli BL21 (pGEX-2TH vector)
T1 sequence (Q07912 38-378 H250G): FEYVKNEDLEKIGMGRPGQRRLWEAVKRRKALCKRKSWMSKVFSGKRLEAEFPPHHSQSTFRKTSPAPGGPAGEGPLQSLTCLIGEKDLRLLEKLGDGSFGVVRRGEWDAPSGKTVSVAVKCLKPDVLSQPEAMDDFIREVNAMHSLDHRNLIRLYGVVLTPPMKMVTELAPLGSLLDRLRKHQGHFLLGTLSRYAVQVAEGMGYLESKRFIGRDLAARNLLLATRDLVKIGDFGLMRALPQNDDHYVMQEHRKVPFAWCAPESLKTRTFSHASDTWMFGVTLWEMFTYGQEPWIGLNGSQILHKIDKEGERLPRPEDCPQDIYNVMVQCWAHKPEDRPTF
Description: Escherichia coli BL21 cells transformed with pGEX-ACKD were grown at 30° C. to early logarithmic phase and protein expression was induced by adding 0.1 mmol/L isopropyl-L-thio-β-D-galactopyranoside. After 3 hours of incubation, cells were harvested, resuspended in lysis buffer [50 mmol/L Tris (pH 7.5), 0.73 mol/L sucrose, 5 mmol/L MgCl2, 0.5% (v/v) NP40], and disrupted by sonication. Cells were centrifuged at 10,000×g for 30 minutes at 4° C. The supernatant was applied to the glutathione-Sepharose column equilibrated with WED buffer [20 mmol/L Tris (pH 7.5), 2 mmol/L MgCl2, 1 mmol/L DTT] followed by washing with WED buffer. GST-ACKD was eluted with 5 mmol/L glutathione solution in 50 mmol/L Tris (pH 9.6). The eluate was dialyzed in WED buffer overnight and concentrated on a sucrose gradient. The expected size of the fusion protein (GST-ACKD) was confirmed by SDS-PAGE (data not shown), and the protein was used for kinase assays as described below.
The purified GST-ACKD (˜5 μg per reaction) was incubated in kinase reaction buffer [50 mmol/L HEPES-KOH (pH 7.2), 10 mmol/L magnesium acetate, 5 mmol/L DTT] containing 7.5 μg MBP, 100 μmol/L ATP, and 4 μCi [γ-^33P]ATP for 10 minutes at 30° C. Reactions were stopped by addition of 5× Laemmli SDS sample buffer. Proteins were separated by SDS-PAGE, and radioactivity incorporated into the substrate was quantified by using the Kodak Imaging Station 2000R. For kinase inhibition experiments, GST-ACKD was preincubated with individual inhibitors in kinase buffer or kinase buffer alone (control) before the addition of MBP following the same protocol as described above. Experiments were done in triplicate.
Several compounds were screened to examine their potency in inhibiting the kinase activity of ACK in vitro. […]
Different kinase inhibitors were added to the ACK-1 kinase reaction as described above in General Procedures. Phosphorylation of MBP was determined by SDS-PAGE and autoradiography. The level of MBP phosphorylation was determined by scanning MBP bands using Kodak Imaging Station 2000R and plotted as arbitrary units. […]

[2] = test system: v-Ha-Ras-transformed cells; experiment: Cell cycle analysis of v-Ha-Ras-transformed cells by flow cytometry; type: cell-based; settings: data not shown
Description: (§1) v-Ras-transformed cells (1×10^5) were seeded in a 35 mm dish and incubated under standard cell culture conditions overnight. Cells in DMEM were treated with Cellfectin, the sense strand of the siRNA:Cellfectin complex or the siRNA:Cellfectin complex for 3 hours. The medium was then replaced with DMEM containing 10% FCS and incubated for 21 hours at 37° C. Cells were harvested and used for Western blotting with specific antibodies or for cell cycle or caspase activation assays. For cell cycle and caspase activation assays, cells were resuspended in PBS containing FITC-VAD-fmk for 10 minutes at room temperature. The cells were then fixed with ice-cold 70% ethanol for 30 minutes at 4° C. Following a rinse with PBS, the cells were resuspended in PBS containing RNase (0.1 mg/mL) and then stained with propidium iodine (10 μg/mL) for 10 minutes at room temperature. Cellular fluorescence from a sample of 15,000 cells was analyzed using a Coulter EPICS Profile II Flow Cytometer (Coulter Electronics, Miami, Fla.). Fluorescence excited at 488 nm was detected using a 525±20 band pass filter. Histograms were analyzed using EPICS Workstation Software (version 4).

[3] = test system: v-Ha-Ras-transformed NIH 3T3 cells; experiment: Induction of apoptosis in v-Ha-Ras-transformed cells (PARP and ICAD cleavage, cytochrome c release, DNA fragmentation); type: cell-based; settings: PARP cleavage, ICAD cleavage, chromosomal DNA fragmentation, FIGS. 3A-D
Description: as §1
v-Ras-transformed cells (5×10^5) were seeded in 35 mm dishes and incubated overnight under standard cell culture conditions. […]

[4] = test system: v-Ha-Ras-transformed NIH 3T3 cells; experiment: Growth of v-Ha-Ras-transformed cells after siRNA transfection (cell counting); type: cell-based; settings: FIG. 2C; counted every 24 hours
Description: (§2) A pair of cRNA primers of 21 nucleotides (Dharmacon Research, Inc., Lafayette, Co.) corresponding to the 5′ noncoding of the ACK-1 cDNA (5′-CAUUACCCGCCUAUCUCAUdTdT-3′ and 5′-AUGAGAUAGGCGGGUAAUGdTdT-3′) were annealed to form siRNA (a 19-nucleotide duplex stem with two-nucleotide overhangs on either side) according to the instructions provided by the manufacturer. v-Ha-Ras-transformed or parental NIH 3T3 cells were seeded into 6- or 24-well plates and incubated overnight. The annealed double-stranded ACK siRNA (0.16, 0.4, or 0.8 nmol/L in DMEM) or the sense strand oligonucleotide of ACK siRNA (0.8 nmol/L) was complexed with Cellfectin. siRNA:Cellfectin complexes were added to the serum-free medium and incubated for 3 hours. Cells were then replenished with medium containing 10% FCS and incubated for another 21 hours or as indicated elsewhere. Cells were collected and counted using a hemocytometer; alternatively, cell lysates were prepared for Western blotting. Western blotting was done using ACK-1 antibodies. […]
(§3) After transfection with siRNA at different concentrations (in nmol/L), v-Ha-Ras transformed and parental NIH 3T3 cells were trypsinized and collected every 24 hours. Cell numbers were counted in triplicate.

[5] = test system: parental NIH 3T3 cells; experiment: Growth of parental NIH 3T3 cells after siRNA transfection (cell counting); type: cell-based; settings: FIG. 2D; counted every 24 hours
Description: as §2, §3

[6] = test system: ACK-1; experiment: ACK-1 protein level after siRNA transfection (Western blot); type: cell-based
Description: as §2
After 24 hours of transfection, cells were collected and lysed with Laemmli SDS sample buffer. Proteins were separated by SDS-PAGE and the level of ACK-1 protein was determined by Western blotting using antibodies against ACK-1. […]

| Molecule | inhibition of kinase activity of ACK (MBP phosphorylation) [1] | cell cycle arrest [2] | induction of apoptosis (apoptosis markers) [3] | growth of v-Ha-Ras-transformed cells after transfection [4] | growth of parental NIH 3T3 cells after transfection [5] | level of ACK-1 at 0.8 nmol/L siRNA ([6]; 0.8 nmol/L, v-Ha-Ras-transformed and parental NIH 3T3 cells) | expression of ACK-1 ([6]; siRNA 0.16, 0.4 or 0.8 nmol/L, 24 hours, FIGS. 2A and B) |
| --- | --- | --- | --- | --- | --- | --- | --- |
| O=c1c(-c2ccc(O)cc2)coc2cc(O)cc(O)c12 [genistein] | very weak activity |  |  |  |  |  |  |
| O=c1c(O)c(-c2ccc(O)c(O)c2)oc2cc(O)cc(O)c12 [quercetin] | very weak activity |  |  |  |  |  |  |
| ACK-1 siRNA: annealed 21-nt pair 5′-CAUUACCCGCCUAUCUCAUdTdT-3′ / 5′-AUGAGAUAGGCGGGUAAUGdTdT-3′ corresponding to the 5′ noncoding of ACK-1 cDNA (chain 1 CAUUACCCGCCUAUCUCAUTT; chain 2 AUGAGAUAGGCGGGUAAUGTT; sugars from the 5' end r19 d2, backbone not given here) |  | did not block v-Ha-Ras-transformed cells at any particular stage of the cell cycle | induced apoptosis | inhibited the growth of v-Ha-Ras-transformed cells in a dose dependent manner | did not affect the growth of parental NIH 3T3 cells | reduced the level of ACK-1 significantly | reduced the expression of ACK-1 in a dose-dependent manner |
